In PubChem BioAssay (NCI):
Where “and” joins values, the source holds several entries; their conditions need not be identical. Equal entries are not always repeated.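 Cultured in 96-well plates, cells were exposed to test compound for 48 hours across five concentrations. GI50 marks 50% less growth. TGI denotes the concentration required for complete inhibition of growth.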

test system: MDA-MB-468 breast; assay: DTP human tumour cell line panel, 48 h

`CS(=O)(=O)c1nccc(-c2c(-c3ccc(F)c(OCCc4ccccc4)c3)nc3sccn23)n1` was tested. Which GI50 did it give?
Its GI50 is 2.57 µM.

And the TGI?
The TGI was 7.36 µM.

With `CC[C@]12C=CCN3CC[C@]4(C(=C(C(=O)OC)C1)Nc1cc5c(cc14)[C@@H]1[C@H](O5)[C@@H](O)[C@@]4(CC)CC(C(=O)OC)=C5Nc6ccccc6[C@@]56CCN1[C@@H]46)[C@@H]32` as the compound, how does the GI50 read?
The GI50 was 0.147 µM and 0.183 µM.

And the TGI?
Its TGI is 1.54 µM and 1.62 µM.

`ClC(Cl)c1nc(-c2ccco2)n2nc(-c3ccccc3)cc2n1` was tested. Which GI50 did it give?
Its GI50 is 0.322 µM.

And the TGI?
The TGI was 1.15 µM.

Which GI50 does the source give for `COc1ccc2[nH]c(C(=O)OCc3ccc4c(Br)cc(Br)c(O)c4n3)cc2c1` here?
Its GI50 is 0.822 µM.

What about the TGI of the same compound?
The TGI was 2.46 µM.

How did the GI50 turn out when `COc1ccc(N=Nc2ccc(O)c(=O)cc2)cc1` was run?
Its GI50 is 2.61 µM.

What about the TGI of the same compound?
The TGI was 18.7 µM.

`CS(=O)(=O)Nc1cc(-c2ccc3ncc(C#N)c(Nc4ccc(F)c(Cl)c4)c3c2)cnc1Cl` was tested. Which GI50 did it give?
The GI50 was 0.0676 µM.

What about the TGI of the same compound?
The TGI was 0.396 µM.

For `Cn1c2c(c3ccccc31)CCN1C[C@@H]3CCCC[C@H]3C[C@@H]21`, which GI50 is on record?
Its GI50 is 1.77 µM.

What about the TGI of the same compound?
Its TGI is 8.73 µM.

Which results are given for `C[n+]1cccc(NC(=O)c2ccc3ccc4ccc(C(=O)Nc5ccc[n+](C)c5)nc4c3n2)c1`?
GI50: 0.252 µM; TGI: 1.29 µM

Which results are given for `C=C(C(=O)c1ccccc1)C(NC(C)(C)C)c1ccccc1` (stereo not drawn)?
GI50: 0.566 µM; TGI: 1.96 µM

For `Nc1c(C(=O)Nc2cccc(Cl)c2)sc2nc3c(cc12)C(O)CCC3` (stereo not drawn), which GI50 is on record?
The GI50 was 0.257 µM.

And the TGI?
The TGI was 15.2 µM.

Which results are given for `CCOc1cc(Cl)c(C(C)NC(=O)c2cccc(OC)c2)cc1OCC` (stereo not drawn)?
GI50: 3.38 µM; TGI: 64.6 µM

`COc1ccc(-c2nc3sccn3c2-c2ccnc(NCCNS(=O)(=O)c3ccc(C(F)(F)F)cc3)n2)cc1` was tested. Which GI50 did it give?
Its GI50 is 1.19 µM.

What about the TGI of the same compound?
Its TGI is 7.62 µM.

Which results are given for `CC1(C)CC[C@]23CC[C@]4(C)[C@H](CC[C@@H]5[C@@]6(C)CCCNC(C)(C)[C@@H]6CC[C@]54C)[C@H]2[C@H]1OC3`?
GI50: 1.61 µM; TGI: 3.45 µM

What does the source list for `C[C@@]12CC[C@@H](O)C[C@@H]1CC[C@H]1[C@H]2CC[C@@]2(C)[C@H](c3ccc(=O)oc3)CC[C@@]12O`?
GI50: 0.0278 µM; TGI: 0.0811 µM

What does the source list for `Cc1c(O)cccc1C(=O)N[C@@H](CSc1ccccc1)[C@H](O)CN1C[C@H]2CCCC[C@H]2C[C@H]1C(=O)NC(C)(C)C`?
GI50: 3.89 µM; TGI: 15.2 µM

With `CS(=O)(=O)N1CCC(Nc2ncc(C(=O)c3c(F)cccc3F)c(N)n2)CC1` as the compound, how does the GI50 read?
Its GI50 is 12.4 µM.

And the TGI?
Its TGI is over 25 µM.

What does the source list for `Clc1nc(Cl)c2ncn(-c3ccccc3)c2n1`?
GI50: 2.71 µM; TGI: 8.39 µM

Which results are given for `COc1cccc(C(=O)NNc2nc(Cl)nc(N3CCN(C(c4ccccc4)c4ccccc4)CC3)n2)c1`?
GI50: 2.4 µM; TGI: 8.11 µM

Which GI50 does the source give for `CCN1CCN(Cc2ccc(Nc3ncc(F)c(-c4cc(F)c5nc(C)n(C(C)C)c5c4)n3)nc2)CC1` here?
The GI50 was 6.95 µM.

What about the TGI of the same compound?
Its TGI is 14 µM.

How did the GI50 turn out when `O=C(/C=C(/C=C/c1cccc2[nH]ccc12)OB(F)F)/C=C/c1cccc2[nH]ccc12` was run?
The GI50 was 0.473 µM.

And the TGI?
Its TGI is 3.12 µM.

For `CCc1ccc(Oc2c(-c3ccc(OCCc4cccc(C(F)(F)F)c4)cc3O)n[nH]c2C(F)(F)F)cc1`, which GI50 is on record?
The GI50 was 1.87 µM.

What about the TGI of the same compound?
Its TGI is 7.96 µM.

Which results are given for `COc1ccc(OC)c(C2=C(c3cn(C)c4ccccc34)C(=O)NC2=O)c1`?
GI50: > 25 µM; TGI: > 25 µM

With `CC(=O)Oc1ccc(C2OC(c3ccc4ccccc4c3OC(C)=O)=NN2C(C)=O)c(OC(C)=O)c1` (stereo not drawn) as the compound, how does the GI50 read?
The GI50 was 0.401 µM.

What about the TGI of the same compound?
Its TGI is 3.22 µM.

`CC1(C)N=C(N)N=C(N)N1c1ccc(OCC(=O)Nc2ccc(S(=O)(=O)F)cc2Cl)c(Cl)c1` was tested. Which GI50 did it give?
Its GI50 is 1.84 µM.

And the TGI?
The TGI was over 100 µM.

With `COc1cc(C)c(-c2ccc(OC)c(=O)cc2C)c(OC)c1OC` as the compound, how does the TGI read?
The TGI was over 100 µM.

Which GI50 does the source give for `COc1ccc(-c2cc(=O)c3c(OC)c4ccoc4c(/C=C/C=O)c3o2)cc1` here?
Its GI50 is 3.58 µM.

And the TGI?
The TGI was 14.4 µM.

Which results are given for `C#C[C@]1(O)CC[C@H]2[C@@H]3CC=C4c5sc(-c6ccc(C)cc6)nc5CC[C@]4(C)[C@H]3CC[C@@]21C`?
GI50: > 100 µM; TGI: > 100 µM

Which GI50 does the source give for `CC[C@]12C=CCN3CC[C@@]4(c5ccc(OC)cc5N(C)[C@H]4[C@@](O)(C(=O)OC)[C@@H]1OC(=O)CCC(=O)O[C@H]1CC[C@H]4[C@@H]5CCC6=CC(=O)CC[C@@H]6[C@H]5CC[C@]14C)[C@@H]32` here?
Its GI50 is 1.42 µM.

What about the TGI of the same compound?
The TGI was 5.9 µM.

How did the GI50 turn out when `O=S(=O)(NCCNc1nccc(-c2c(-c3ccc(F)cc3)nc3sccn23)n1)c1ccc(O)cc1` was run?
Its GI50 is 3.37 µM.

And the TGI?
Its TGI is 48.2 µM.

For `Cc1ccc(C2=NN(c3ccc(S(=O)(=O)NC(=O)NCc4ccccc4)cc3)C(c3ccc(N(C)C)cc3)C2)c(C)c1` (stereo not drawn), which GI50 is on record?
The GI50 was 2.36 µM.

And the TGI?
The TGI was 6.11 µM.

Which results are given for `NC(=O)c1c[nH]c2ncnc(N)c12`?
GI50: 18.8 µM; TGI: 90.1 µM

For `O=C1c2ccccc2C(=O)c2c1oc1cc(O)c(Cl)cc21`, which GI50 is on record?
The GI50 was 1.13 µM.

And the TGI?
The TGI was 7.23 µM.

Which GI50 does the source give for `COc1cc(/C=C2\CCC/C(=C\c3cc(CN4CCCC4)c(O)c(OC)c3)C2=O)cc(CN2CCCC2)c1O` here?
Its GI50 is 1.7 µM.

And the TGI?
The TGI was 4.07 µM.

Which results are given for `Cc1ccc(NC(=S)NNC(=S)Nc2ccc(C)cc2)cc1`?
GI50: 2.82 µM; TGI: 7.58 µM

How did the GI50 turn out when `CCCCCCCCCCCCCCCC(=O)NS(=O)(=O)OC[C@H]1O[C@@H](n2cnc3c(N)ncnc32)[C@H](O)[C@@H]1O` was run?
Its GI50 is under 0.0328 µM.

How did the GI50 turn out when `CC(C)n1cc(-c2ccc3c(c2)N(C)CC3)c2c(NS(=O)(=O)c3ccn(C)n3)ccnc21` was run?
The GI50 was 41.1 µM.

What about the TGI of the same compound?
The TGI was over 100 µM.

What does the source list for `COc1cc2c(Nc3ccc(-c4ccc(N)cc4)cc3)ncnc2c(OC)c1OC`?
GI50: 11.2 µM; TGI: 49 µM

With `COc1cccc2nc(Nc3cccc(NC(=O)c4ccc(N5CCN(C)CC5)c(C(F)(F)F)c4)c3)ccc12` as the compound, how does the GI50 read?
Its GI50 is 1.11 µM.

And the TGI?
Its TGI is 3.65 µM.

How did the GI50 turn out when `CSC1=CC(=O)c2ccccc2C1=O` was run?
The GI50 was 0.26 µM.

And the TGI?
Its TGI is 1.09 µM.

Which GI50 does the source give for `Cn1cc(-c2csc(-c3ccccc3)n2)c2cccnc21` here?
Its GI50 is 14.2 µM.

What about the TGI of the same compound?
The TGI was 48.4 µM.

Which results are given for `O=C(O)c1ccc(CSc2nc3ccccc3[nH]2)cc1`?
GI50: > 100 µM; TGI: > 100 µM

What does the source list for `CC(C)[C@@]12C[C@@H](OC(=O)COC(=O)c3ccccc3)[C@@](C)(O1)[C@@H]1CC[C@@H](C)[C@H]1[C@@H]2OC(=O)/C=C/c1ccccc1`?
GI50: > 81.2 µM; TGI: > 100 µM

For `Cc1nc2ccc(-n3ncc(C(=O)c4cc5ccccc5[nH]4)c3N)cc2[nH]1`, which GI50 is on record?
Its GI50 is 12.5 µM.

And the TGI?
Its TGI is 43.2 µM.

With `CC(C)C[C@H](NC(=O)[C@@H](Cc1ccccc1)n1ccc(Nc2ccccc2)cc1=O)B(O)O` as the compound, how does the GI50 read?
The GI50 was 0.236 µM.

What about the TGI of the same compound?
The TGI was 1.29 µM.

Which GI50 does the source give for `COc1ccccc1CNCCCN1C(=O)c2ccc3c4c(ccc(c24)C1=O)C(=O)N(CCCNCCCCNCCCN)C3=O` here?
Its GI50 is 0.131 µM.

And the TGI?
Its TGI is 0.273 µM.

With `Cc1[nH]c(C(=O)Nc2cccc(OC3CCNCC3)c2)c(Cl)c1Cl` as the compound, how does the GI50 read?
The GI50 was 1.87 µM.

What about the TGI of the same compound?
Its TGI is 3.68 µM.

With `Nc1nc2ccc(CNc3ccc(C(=O)NC(CC(=O)O)C(=O)O)cc3)cc2c(=O)[nH]1` (stereo not drawn) as the compound, how does the GI50 read?
The GI50 was 9.09 µM.

What about the TGI of the same compound?
The TGI was over 100 µM.

Which results are given for `CCN1CCN(Cc2ccc(NC(=O)Nc3nc(-c4cc(OC)c(OC)c(OC)c4)cs3)cc2C(F)(F)F)CC1`?
GI50: 1.43 µM; TGI: 3.03 µM

With `O=C1/C(=C/c2ccc(Cl)cc2)CN(Cc2cn(CCCNc3ccnc4cc(Cl)ccc34)nn2)C/C1=C\c1ccc(Cl)cc1` as the compound, how does the GI50 read?
The GI50 was 1.4 µM.

And the TGI?
The TGI was 3.5 µM.

With `Nc1nc(N)c2cc(S(=O)(=O)c3ccc4ccccc4c3)ccc2n1` as the compound, how does the GI50 read?
The GI50 was 2.43 µM.

And the TGI?
Its TGI is over 100 µM.

For `CN1C(=O)C(N=Nc2ccc([N+](=O)[O-])cc2)SC1=S` (stereo not drawn), which GI50 is on record?
Its GI50 is 4.33 µM and 9.92 µM.

And the TGI?
The TGI was 30.6 µM and 56.6 µM.

How did the GI50 turn out when `CCN1C(=O)/C(=c2\sc3n(c2=O)C2C(NN=3)N(CC)C(=O)N2CC)c2ccccc21` (stereo not drawn) was run?
The GI50 was 0.336 µM.

And the TGI?
The TGI was 8.33 µM.

How did the GI50 turn out when `c1cc[n+](Cc2c3ccccc3cc3c2ccc2ccccc23)cc1` was run?
Its GI50 is 0.426 µM.

And the TGI?
Its TGI is 2.68 µM.

`CC(C)c1cnc(-c2cc(Cl)ccc2F)cc1Nc1ccncc1C(=O)NC(CO)CO` was tested. Which GI50 did it give?
Its GI50 is 8.35 µM.

And the TGI?
Its TGI is 32.7 µM.

With `NS(=O)(=O)c1ccc(N=Nc2c(O)[nH]c3ccc(C(=O)NCCCn4ccnc4)cc23)cc1` as the compound, how does the GI50 read?
Its GI50 is over 25 µM.

What about the TGI of the same compound?
Its TGI is over 25 µM.
